Test results from publication PMC4607724, “Discovery and optimisation studies of antimalarial phenotypic hits” (European Journal of Medicinal Chemistry, 2015).
Read-outs that look alike come from different tables or passages of the source.

Key:
[1] = In vitro cytotoxicity assay in L-6 cells (Alamar Blue); conditions: rat
Method: (§1) VI. Design and Results of the in vitro & in vivo Studies.
A. Drug inhibition of in vitro cultured P. falciparum parasite:[2] […]
B. In vitro cytotoxicity assay: [2] Assays were performed in 96-well microtiter plates, each well containing 100 µl of RPMI 1640 medium supplemented with 1% L-glutamine (200mM) and 10% fetal bovine serum, and 4 x 10^4 L-6 cells (a primary cell line derived from rat skeletal myoblasts).
Serial drug dilutions of seven 3-fold dilution steps covering a range from 90 to 0.123 µg/mL were prepared. After 72 h of incubation the plates were inspected under an inverted microscope to assure growth of the controls and sterile conditions. 10µL of Alamar Blue was then added to each well and the plates incubated for another 2 h. Then the plates were read with a Spectramax Gemini XS microplatefluorometer (Molecular Devices Cooperation, Sunnyvale, CA, USA) using an excitation wave length of 536 nm and an emission wave length of 588 nm. Data were analysed using the microplate reader software Softmax Pro (Molecular Devices Cooperation, Sunnyvale, CA, USA).

P. falciparum K1 = assay: In vitro activity against erythrocytic stages of P. falciparum, 3H-hypoxanthine incorporation assay; format: cell-based; conditions: Plasmodium falciparum
Method: as §1
A. Drug inhibition of in vitro cultured P. falciparum parasite:[2] All in vitro assays were carried out twice independently in duplicate.In vitro activity against theerythrocytic stages of P. falciparum was determined by using a 3H-hypoxanthine incorporation assay, using the chloroquine and pyrimethamine resistant K1 strain and the standard drugs chloroquine (Sigma C6628) and artemisinin (Arteannuin, Qinghaosu; Sigma 36,159- 3). Compounds were dissolved in DMSO at 10 mg/mL and added to parasite cultures incubated in RPMI 1640 medium without hypoxanthine, supplemented with HEPES (5.94 g/L), NaHCO3 (2.1 g/L), neomycin (100U/mL), AlbumaxR (5 g/L), and washed human red cells A+ at 2.5% haematocrit (0.3% parasitaemia). Serial doubling dilutions of each drug were prepared in 96-well microtiter plates and incubated in a humidified atmosphere at 37 °C; 4% CO 2, 3% O2, 93% N2. After 48 h, 50 µLof 3H-hypoxanthine (= 0.5 µCi) was added to each well of the plate. The plates were incubated for an additional 24 h under the same conditions. The plates were then harvested with a Betaplate cell harvester (Wallac, Zurich, Switzerland), and the red blood cells were transferred onto a glass fiber filter and then washed with distilled water. The dried filters were inserted into a plastic foil with 10 mL of scintillation fluid and were counted in a Betaplate™ liquid scintillation counter (Wallac, Zurich, Switzerland); IC50values were calculated from sigmoidal inhibition curves using Microsoft Excel. […]

P. falciparum = test system: P. falciparum; parameters: method as in PMID 23918316, PMID 23517371; conditions: cited from earlier work
P. berghei ANKA GFP = assay: In vivo antimalarial efficacy, P. berghei mouse model (4 days treatment); parameters: species or system Plasmodium berghei; conditions: 10 mg/kg/day × 4, ip, NMRI mice
Method: C. In vivo antimalarial efficacy studies (4 days treatment).[2]
In vivo antimalarial activity was assessed basically as previously described. Groups of three female […]
GFP-transfected P. berghei strain ANKA. .Unless otherwise indicated compounds were formulated in 100% DMSO, diluted 10-fold in distilled water and administered intraperitoneally in a volume of 10 mL kg-1 on four consecutive days (4, 24, 48 and 72 h post infection). Parasitemia was determined on day 4 post infection (24 h after last treatment) by FACS analysis. Activity was calculated as the difference between the mean per cent parasitaemia for the control (n=5 mice) and treated groups expressed as a per cent relative to the control group. The survival time in days was also recorded up to 30 days after infection. A compound was considered curative if the animal survived to day 30 after infection with no detectable parasites. In vivo efficacy studies in mice were conducted at the Swiss Tropical and Public Health Institute (Basel) according to the rules and regulations for the protection of animal rights ("Tierschutzverordnung") of the Swiss "BundesamtfürVeterinärwesen". They were approved by the veterinary office of Canton Basel-

[2] = L-6 cells (rat skeletal myoblasts)
[3] = K1 strain (chloroquine and pyrimethamine resistant), means of two independent assays, read-out: P. falc. EC50

SMILES: Cc1cc(/C=C2\S/C(=N\c3ccccc3)N(C3CCCCC3)C2=O)c(C)n1-c1ccc(Br)cc1 [Compound 21, (2Z,5Z)-3-Cyclohexyl-5-((1-(4-bromophenyl)-2,5-dimethyl-1H-pyrrol-3-yl)methylene)-2-(phenylimino)thiazolidin-4-one]
- melting point: 243 to 244 °C
- EC50 at 72 h [1, 2]: > 170 µM
- EC50 (P. falciparum K1; [3]): 0.42 µM

SMILES: Cc1cc(/C=C2\S/C(=N\c3ccccc3)N(C3CCCCC3)C2=O)c(C)n1-c1ccccc1 [Compound 22]
- melting point: 198 to 199 °C
- EC50 at 72 h [1, 2]: > 200 µM
- EC50 (P. falciparum K1; [3]): 0.25 µM

SMILES: Cc1cc(/C=C2\S/C(=N\c3ccccc3)N(C3CCCCC3)C2=O)c(C)n1-c1ccc(C(F)(F)F)cc1 [Compound 23]
- melting point: 218 to 220 °C
- EC50 at 72 h [1, 2]: > 170 µM
- EC50 (P. falciparum K1; [3]): 0.25 µM

SMILES: Cc1cc(/C=C2\S/C(=N\c3ccccc3)N(C3CCCCC3)C2=O)c(C)n1-c1cccc(C(F)(F)F)c1 [Compound 24]
- EC50 at 72 h [1, 2]: > 170 µM
- EC50 (P. falciparum K1; [3]): 1.9 µM

SMILES: Cc1cc(/C=C2\S/C(=N\c3ccccc3)N(C3CCCCC3)C2=O)c(C)n1-c1ccccc1C(F)(F)F [Compound 25]
- melting point: 125 to 127 °C
- EC50 at 72 h [1, 2]: > 170 µM
- EC50 (P. falciparum K1; [3]): 0.78 µM

SMILES: Cc1cc(/C=C2\S/C(=N\c3ccccc3)N(C3CCCCC3)C2=O)c(C)n1-c1ccc(N2CCOCC2)cc1 [Compound 26]
- melting point: 155 to 156 °C
- EC50 at 72 h [1, 2]: > 170 µM
- EC50 (P. falciparum K1; [3]): 0.09 µM

SMILES: Cc1cc(/C=C2\S/C(=N\c3ccccc3)N(C3CCCCC3)C2=O)c(C)n1CCN1CCOCC1 [Compound 27]
- EC50 at 72 h [1, 2]: 71 µM
- EC50 (P. falciparum K1; [3]): 0.61 µM

SMILES: O=C1/C(=C/c2ccn(-c3ccccc3C(F)(F)F)c2)S/C(=N\c2ccccc2)N1C1CCCCC1 [Compound 28]
- melting point: 145 to 147 °C
- EC50 at 72 h [1, 2]: > 180 µM
- EC50 (P. falciparum K1; [3]): 2.3 µM

SMILES: O=C1/C(=C/c2ccn(Cc3ccccc3)c2)S/C(=N\c2ccccc2)N1C1CCCCC1 [Compound 29]
- melting point: 68 to 70 °C
- EC50 at 72 h [1, 2]: > 200 µM
- EC50 (P. falciparum K1; [3]): 1.6 µM

SMILES: Cc1cc(/C=C2\S/C(=N\c3ccccc3)N(C3CCCCC3)C2=O)c(C)[nH]1 [Compound 30]
- EC50 at 72 h [1, 2]: 23 µM
- EC50 (P. falciparum K1; [3]): 3.4 µM

SMILES: Cc1cc(/C=C2\S/C(=N\c3ccccc3)N(C3CCCCC3)C2=O)c(C)n1C [Compound 31]
- melting point: 184 to 185 °C
- EC50 at 72 h [1, 2]: > 230 µM
- EC50 (P. falciparum K1; [3]): 1.9 µM

SMILES: O=C1/C(=C/c2cnn(-c3ccccc3C(F)(F)F)c2)S/C(=N\c2ccccc2)N1C1CCCCC1 [Compound 32]
- EC50 at 72 h [1, 2]: > 180 µM
- EC50 (P. falciparum K1; [3]): 1.9 µM

SMILES: Cc1cc(/C=C2\S/C(=N\c3ccccc3)N(C)C2=O)c(C)n1-c1ccccc1 [Compound 33]
- melting point: 203 to 205 °C
- EC50 at 72 h [1, 2]: > 230 µM
- EC50 (P. falciparum K1; [3]): 2.6 µM

SMILES: CC1=CC(/C=C2\S/C(=N\c3ccccc3)N(C)C2=O)=C(C)C1c1ccccc1C(F)(F)F (stereo not shown) [Compound 34]
- EC50 at 72 h [1, 2]: > 200 µM
- EC50 (P. falciparum K1; [3]): 2.2 µM

SMILES: Cc1cc(/C=C2\S/C(=N\c3ccccc3)N(C)C2=O)c(C)n1-c1ccc(N2CCOCC2)cc1 [Compound 35]
- melting point: 288 °C
- EC50 at 72 h [1, 2]: 120 µM
- EC50 (P. falciparum K1; [3]): 1.5 µM

SMILES: Cc1cc(/C=C2\S/C(=N\c3ccccc3)N(C)C2=O)c(C)n1CCN1CCOCC1 [Compound 36]
- EC50 at 72 h [1, 2]: > 210 µM
- EC50 (P. falciparum K1; [3]): 0.99 µM

SMILES: CN1C(=O)/C(=C/c2ccn(Cc3ccccc3)c2)S/C1=N\c1ccccc1 [Compound 37]
- melting point: 155 to 156 °C
- EC50 at 72 h [1, 2]: > 240 µM
- EC50 (P. falciparum K1; [3]): 3.9 µM

SMILES: CN1C(=O)/C(=C/c2cnn(-c3ccccc3C(F)(F)F)c2)S/C1=N\c1ccccc1 [Compound 38]
- EC50 at 72 h [1, 2]: 180 µM
- EC50 (P. falciparum K1; [3]): 4.6 µM

SMILES: C/N=C1\S/C(=C\c2cc(C)n(-c3ccc(N4CCOCC4)cc3)c2C)C(=O)N1C [Compound 39]
- melting point: 333 to 334 °C
- EC50 at 72 h [1, 2]: > 220 µM
- EC50 (P. falciparum K1; [3]): > 13 µM

SMILES: C/N=C1\S/C(=C\c2cc(C)n(CCN3CCOCC3)c2C)C(=O)N1C [Compound 40]
- EC50 at 72 h [1, 2]: 78 µM
- EC50 (P. falciparum K1; [3]): 5.6 µM

SMILES: C/N=C1\S/C(=C\c2ccn(-c3ccccc3C(F)(F)F)c2)C(=O)N1C [Compound 41]
- melting point: 54 to 55 °C
- EC50 at 72 h [1, 2]: 4 µM
- EC50 (P. falciparum K1; [3]): 4.7 µM

SMILES: C/N=C1\S/C(=C\c2ccn(Cc3ccccc3)c2)C(=O)N1C [Compound 42]
- melting point: 128 to 130 °C
- EC50 at 72 h [1, 2]: > 290 µM
- EC50 (P. falciparum K1; [3]): 9.5 µM

SMILES: C/N=C1\S/C(=C\c2cnn(-c3ccccc3C(F)(F)F)c2)C(=O)N1C [Compound 43]
- melting point: 170 to 172 °C
- EC50 at 72 h [1, 2]: 34 µM
- EC50 (P. falciparum K1; [3]): 3.6 µM

SMILES: Cc1cc(/C=C2\SC(=O)NC2=O)c(C)n1-c1ccccc1C(F)(F)F [Compound 44]
- melting point: 234 to 235 °C
- EC50 at 72 h [1, 2]: 64 µM
- EC50 (P. falciparum K1; [3]): 1.9 µM

SMILES: Cc1cc(/C=C2\SC(=O)N(C)C2=O)c(C)n1-c1ccccc1 [Compound 45]
- melting point: 195 to 196 °C
- EC50 at 72 h [1, 2]: > 290 µM
- EC50 (P. falciparum K1; [3]): 2.2 µM

SMILES: Cc1cc(/C=C2/SC(=O)NC2=O)c(C)n1-c1ccccc1C(F)(F)F [Compound 46]
- melting point: 205 to 210 °C
- EC50 at 72 h [1, 2]: 43 µM
- EC50 (P. falciparum K1; [3]): 8.4 µM

SMILES: Cc1cc(/C=C2/SC(=N)NC2=O)c(C)n1-c1ccccc1C(F)(F)F [Compound 47]
- melting point: 285 to 290 °C
- EC50 at 72 h [1, 2]: 56 µM
- EC50 (P. falciparum K1; [3]): 5.8 µM

SMILES: Cc1cc(/C=C2/SC(=S)NC2=O)c(C)n1-c1ccccc1C(F)(F)F [Compound 48]
- melting point: 255 to 258 °C
- EC50 at 72 h [1, 2]: 9 µM
- EC50 (P. falciparum K1; [3]): 21 µM

SMILES: Cc1cc(/C=C2\NC(=O)NC2=O)c(C)n1-c1ccccc1C(F)(F)F [Compound 49]
- melting point: 265 to 267 °C
- EC50 at 72 h [1, 2]: 84 µM
- EC50 (P. falciparum K1; [3]): 13 µM

SMILES: Cc1cc(/C=C2\NC(=O)NC2=O)c(C)n1-c1ccccc1 [Compound 50]
- melting point: 267 to 270 °C (dec.)
- EC50 at 72 h [1, 2]: > 320 µM
- EC50 (P. falciparum K1; [3]): 11 µM

SMILES: Cc1cc(C=C2C(=O)NC(=O)NC2=O)c(C)n1-c1ccccc1C(F)(F)F [Compound 51]
- melting point: > 300 °C
- EC50 at 72 h [1]: 120 µM
- EC50 (P. falciparum K1; K1, read-out: P. falc. EC50): 16 µM

SMILES: Cc1cc(C=C2C(=O)NC(=S)NC2=O)c(C)n1-c1ccccc1C(F)(F)F [Compound 52]
- melting point: > 300 °C
- EC50 at 72 h [1]: 16 µM
- EC50 (P. falciparum K1; K1, read-out: P. falc. EC50): 29 µM

SMILES: CCOC(=O)C1=C(C)N/C(=C/c2cc(C)n(-c3ccccc3C(F)(F)F)c2C)C1=O [TDR32750]
- selectivity compared to L6 mammalian cells (P. falciparum; L6 vs P. falciparum): > 2000 fold
- EC50 (P. falciparum; read-out: EC50 against P. falciparum): 0.009 µM

SMILES: CCN(CC)CCCC(C)Nc1ccnc2cc(Cl)ccc12 (stereo not shown) [chloroquine]
- % Reduction parasitaemia P. berghei ANKA GFP (P. berghei ANKA GFP): 99.97%
- Survival (P. berghei ANKA GFP; control 7 days): 20 days
- EC50 (P. falciparum K1; K1, read-out: EC50, control for P. falciparum K1): 0.1 µg/mL

SMILES: COc1cc([C@@H]2c3cc4c(cc3[C@H](O)[C@H]3COC(=O)[C@H]23)OCO4)cc(OC)c1OC [podophyllotoxin, reference compound]
- EC50 at 72 h [1]: 0.005 µg/mL
